From patent US8609695B2, “Methods of treating and/or suppressing insulin resistance” (Endorecherche, Inc., priority 1999, dated 2013)

Key:
OVX Sprague-Dawley Rat = test: 11-month combination treatment DHEA + EM-800, body weight (Example 2); type: in vivo; settings: OVX rats, 11 months
Excerpt: 1.1 Test Compounds: • DHEA: Available from Steraloids Inc. Wilton, N.H. Lot: H137; • EM-800 is synthesized at the UCPO Department of Lab. of Mol. Endo., CHUL.
1.2 Vehicle • a) Gelatin: Lab-Grade, ACP Chemicals Inc., Montreal, Qc. Lot# F0195 • b) Ethanol: Commercial Alcohols Inc., Brampton, Ontario. Lot No. 11296 • c) Polyethylene Glycol-600 (PEG-600): Omega Chemical Company Inc., Lévis, Quebec. Lot#: 00-0117-EZ • d) Normal Saline: 0.9% Sodium Chloride irrigation USP. Abbott Laboratories Limited, St-Laurent, Qc. • e) Propylene Glycol (1, 2-Propanediol, PPG): Sigma Chemical Co., St-Louis, Mo. • g) Vehicle 1: 4% ETOH-4% PEG-600-1% gelatin-0.9% NaCl—H2O for Subcutaneous Injection. • h) Vehicle 2: 50% ETOH-50% PPG for Topical Application.
3.1 Perapartion of Vehicle and Test Articles • a) Preparation of EM-800: • EM-800 or both of them will be dissolved in ETOH:PEG-600 (1:1) with agitation on Fisher Scientific Stirring Hot Plate, then, 1% GNS will be added to the required volume. • b) Preparation of DHEA: • DHEA is dissolved in 50% ETOH, 50% PPG by agitation.
3.2 Animal Preparation and Treatments • Animals will be treated once daily as indicated on Item 6.1. DHEA, prepared in 50% ETOH, 50% PPG, will be percutaneously applied (P.C.) to corresponding animals once daily (I.D.) in a volume of 0.5 ml. […]

[1] = test system: ovariectomized female rats; test: 20-day treatment with EM-652.HCl, estradiol and DHEA, body fat (Example 6); type: in vivo, Rattus norvegicus; settings: OVX rats; for decrease of body fat / decrease of retroperitoneal adipose tissue: 20 days; for Retroperitoneal adipose tissue / Fat %: enriched carbohydrate diet, 20 days oral, EM-652.HCl 0.5, E2 0.5, DHEA 100 mg/rat; for Fat %: DEXA day 21
Excerpt: d) Diet: Certified Rodent feed (Lab Diet #5002, pellets) and tap water were provided ad libitum during the acclimation period. During the study period, the rats received an enriched carbonhydrate diet ad libitum. The enriched diet (diet #3) was composed of (g/100 g): Corn starch, 31.2; Dextrose, 31.2; Casein, 20.0; Corn oil, 6.4; dl-Methionine, 0.3; Vitamin mix, 1.0; AIN-76 mineral mix, 4.9; Fiber, 5.0.
80 rats were assigned to 8 groups of 10 rats for the conduct of the study outlined below:
On day 0 of the study, rats from groups 2 to 8 were ovariectomized, by bilateral flank incision, under Isoflurane-induced anesthesia. Rats from group 1 were sham-operated.
The administration of the test articles or vehicle began on Day 1 (the day following the ovariectomy). The tested compounds were given as suspensions in 0.4% methylcellulose by oral gavage (0.5 ml/gavage) for 20 days.
On day 21 of the study (prior to the necropsy), body composition was determined on whole body skeleton of animals under Isoflurane-induced anesthesia using dual energy x-ray absorptiometry (DEXA; QDR 4500A, Hologic) in order to determine the effect of treatments on fat percentage.
Right and left retroperitoneal adipose tissue were collected and weighed.

intact female rats = test: 6-month treatment, fat accumulation in intact female rats receiving or not LHRH-A (Example 5); type: in vivo, Rattus norvegicus; set-up: FAT (%): dose or concentration left out as unconfirmed; settings: 6 months; for FAT (%): DEXA, once daily; for increment of the percentage of body fat under LHRH-A: concomitant with LHRH-A
Description: The objective of this study is to determine the effect on fat of treatment with EM-652.HCl and dehydroepiandrosterone (DHEA) in intact female rats receiving or not a luteinizing hormone releasing hormone agonist (LHRH-A, LHRH ethylamide diacetate). For this purpose, intact female rats, treated or not with LHRH-A (2 μg/rat), received daily administration of EM-652.HCl (2.5 mg/kg) and DHEA (100 mg/kg), alone or in combination, for 6 months. EM-652.HCl was administered orally, DHEA was applied topically while LHRH-A was injected subcutaneously. All treatments were administered once daily.
One hundred twenty rats were separated into 8 groups of 15 animals for conduct of the study outlined below:
The LHRH-A is available in solution at a concentration of 1.0 mg/ml. We diluted this concentrated solution (in order to obtain a final concentration of 0.004 mg/ml) by using the following vehicle: 0.3% Sodium Chloride and 0.25% Sodium Phosphate monobasic, monohydrate in water. The sodium hydroxide (aqueous) was used to adjust the pH between 5.6-6.2.
Dosing suspensions/solutions were prepared every two weeks according to the most recent body weight (group mean) except for the LHRH-A solution. For EM-652.HCl administered orally, the vehicle (0.4% methylcellulose) was added to the tested compound, previously weighed into a glass bottle, at least 48 hours prior to the first dosing day. To ensure the homogeneity of dosing suspension, it was stirred at least 48 hours at 2 to 8 C. Dosing suspension was kept at 2 to 8 C. For DHEA solution applied topically, the ethanol was added to DHEA and the mix were agitated until dissolution of DHEA. Then, the polypropylene glycol was added and the solution agitated until homogeneity. Dosing solution was kept at 2 to 8 C. For LHRH-A solution injected subcutaneously, a dilution of the concentrated solution using the appropriate vehicle was prepared every month. Dosing solution was kept at 2 to 8 C.
The administration of tested compounds or vehicle was given from on Study Day 1 of the protocol. The tested compounds were given as suspension in 0.4% methylcellulose by oral gavage (0.5 ml/gavage/rat) once daily or were applied topically in 50% ethanol-50% propylene glycol (0.5 ml/application/rat) once daily. Rats from groups 5 to 8 received also the LHRH-A once daily by subcutaneous injection (0.5 ml/injection/rat). Rats not receiving a tested compound orally and/or topically received the appropriate vehicle alone.
Body composition was measured on whole skeleton of animal under Isoflurane-induced anesthesia using dual energy x-ray absorptiometry (DEXA; QDR 4500A, Hologic) during the acclimation period and after 6 months of treatment.

With `C[C@]12CC[C@H](O)CC1=CC[C@@H]1[C@@H]2CC[C@]2(C)C(=O)CC[C@@H]12` [DHEA, dehydroepiandrosterone] the “inhibition of the OVX stimulation of body weight” value (OVX Sprague-Dawley Rat; DHEA 12.5 mg daily, EM-800 daily) was 87%, the “Total weight” value (OVX Sprague-Dawley Rat; DHEA 12.5 mg/day/rat percutaneous, EM-800 100 μg/day/rat s.c.) was 490.8 ± 24.1 g and the “decrease of body fat” value [1] was 59%. For the same compound, the “decrease of retroperitoneal adipose tissue” value [1] was 75%, the Retroperitoneal adipose tissue [1] was 0.92 ± 0.17 g and the Fat % [1] was 7.8 ± 0.8%. For the same compound, the “FAT (%)” value (intact female rats) was 20.2 ± 2.3% and the “increment of the percentage of body fat under LHRH-A” value (intact female rats) was 19%.

`CC1=C(c2ccc(O)cc2)[C@H](c2ccc(OCCN3CCCCC3)cc2)Oc2cc(O)ccc21.Cl` [EM-652.HCl, (S)-(+)-7-hydroxy-3-(4′-hydroxyphenyl)-4-methyl-2-(4″-(2′″-piperidino-ethoxy)phenyl)-2H-1-benxopyran hydrochloride] was tested, and the “decrease of body fat” value [1] was 46%, the “decrease of retroperitoneal adipose tissue” value [1] was 59% and the Retroperitoneal adipose tissue [1] was 1.52 ± 0.18 g. The Fat % [1] was 10.2 ± 1.2%, the “FAT (%)” value (intact female rats) was 19.1 ± 1.4% and the “increment of the percentage of body fat under LHRH-A” value (intact female rats) was 35%.
